From PubChem BioAssay AID2060505 (Molecular Pharmacology Branch, DTP, NCI, 2025)
Each block holds one compound with its values, some of them ahead of it.

Tested on: 633275-114-R-J1-PDC complex spheroids, viability
Assay: Anticancer human tumor 633275-114-R-J1-PDC patient-derived endometrial adenocarcinoma cell line growth inhibition [GQUAD]
Settings: for IC50: curve of first compound; for viability, T/C: stronger effect = lower value
Procedure, shortened: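 Viability of tumor cells grown as complex spheroids with endothelial and stromal cells, exposed to drug combinations. Top concentration at or near clinical Cmax (else 10 microM), diluted in half-log increments.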

[1] = second compound 0.0316 µM, first compound 0.0316 µM
[2] = second compound 0.0316 µM, first compound 0.1 µM
[3] = second compound 0.0316 µM, first compound 0.316 µM
[4] = second compound 0.0316 µM, first compound 1 µM
[5] = second compound 0.0316 µM, first compound 3.16 µM
[6] = second compound 0.0316 µM, first compound 10 µM
[7] = second compound 0.1 µM, first compound 0.0316 µM
[8] = second compound 0.1 µM, first compound 0.1 µM
[9] = second compound 0.1 µM, first compound 0.316 µM
[10] = second compound 0.1 µM, first compound 1 µM
[11] = second compound 0.1 µM, first compound 3.16 µM
[12] = second compound 0.1 µM, first compound 10 µM
[13] = second compound 0.316 µM, first compound 0.0316 µM
[14] = second compound 0.316 µM, first compound 0.1 µM
[15] = second compound 0.316 µM, first compound 0.316 µM
[16] = second compound 0.316 µM, first compound 1 µM
[17] = second compound 0.316 µM, first compound 3.16 µM
[18] = second compound 0.316 µM, first compound 10 µM
[19] = second compound 1 µM, first compound 0.0316 µM
[20] = second compound 1 µM, first compound 0.1 µM
[21] = second compound 1 µM, first compound 0.316 µM
[22] = second compound 1 µM, first compound 1 µM
[23] = second compound 1 µM, first compound 3.16 µM
[24] = second compound 1 µM, first compound 10 µM
[25] = second compound 3.16 µM, first compound 0.0316 µM
[26] = second compound 3.16 µM, first compound 0.1 µM
[27] = second compound 3.16 µM, first compound 0.316 µM
[28] = second compound 3.16 µM, first compound 1 µM
[29] = second compound 3.16 µM, first compound 3.16 µM
[30] = second compound 3.16 µM, first compound 10 µM
[31] = second compound 10 µM, first compound 0.0316 µM
[32] = second compound 10 µM, first compound 0.1 µM
[33] = second compound 10 µM, first compound 0.316 µM
[34] = second compound 10 µM, first compound 1 µM
[35] = second compound 10 µM, first compound 3.16 µM
[36] = second compound 10 µM, first compound 10 µM
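Note: spheroids exposed to the agents for seven days.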
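Throughout, for viability, T/C: percent of DMSO vehicle control viability which is 100%.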

SMILES: CC(C)n1c(=O)n(C)c2cnc3cc(F)c(-c4ccc(OCCCN5CCCCC5)nc4)cc3c21 + CN(C)c1ccc(Nc2c3ccc(NC(=O)CCN4CCCC4)cc3nc3cc(NC(=O)CCN4CCCC4)ccc23)cc1
IC50 (second compound 0.0316 µM): > 10000 nM
IC50 (second compound 0.1 µM): > 10000 nM
IC50 (second compound 0.316 µM): > 10000 nM
IC50 (second compound 1 µM): > 10000 nM
IC50 (second compound 3.16 µM): 2550 nM
IC50 (second compound 10 µM): < 31.6 nM
viability, T/C [1]: 115%
viability, T/C [2]: 109%
viability, T/C [3]: 102%
viability, T/C [4]: 109%
viability, T/C [5]: 102%
viability, T/C [6]: 67.9%
viability, T/C [7]: 102%
viability, T/C [8]: 115%
viability, T/C [9]: 98.2%
viability, T/C [10]: 97.4%
viability, T/C [11]: 97.4%
viability, T/C [12]: 65.1%
viability, T/C [13]: 102%
viability, T/C [14]: 104%
viability, T/C [15]: 98.7%
viability, T/C [16]: 101%
viability, T/C [17]: 86.1%
viability, T/C [18]: 70.7%
viability, T/C [19]: 99.8%
viability, T/C [20]: 98.3%
viability, T/C [21]: 113%
viability, T/C [22]: 78.4%
viability, T/C [23]: 85.1%
viability, T/C [24]: 63.5%
viability, T/C [25]: 84.4%
viability, T/C [26]: 81.2%
viability, T/C [27]: 60.4%
viability, T/C [28]: 64.5%
viability, T/C [29]: 50.3%
viability, T/C [30]: 32.3%
viability, T/C [31]: 29%
viability, T/C [32]: 28.8%
viability, T/C [33]: 22.1%
viability, T/C [34]: 21.5%
viability, T/C [35]: 17.9%
viability, T/C [36]: 9.88%

IC50 (second compound 0.0316 µM): 886 nM
IC50 (second compound 0.1 µM): < 31.6 nM
IC50 (second compound 0.316 µM): < 31.6 nM
IC50 (second compound 1 µM): < 31.6 nM
IC50 (second compound 3.16 µM): < 31.6 nM
IC50 (second compound 10 µM): < 31.6 nM
SMILES: CC(C)(O)C1CCC(Nc2ccc3ncc(-c4cccc(C(F)(F)F)c4)n3n2)CC1 (stereo unspecified) + Cc1cnc(CNC(=O)c2c(=O)c3ccc(N4CCCN(C)CC4)nc3n3c2sc2ccccc23)cn1
viability, T/C [1]: 64.2%
viability, T/C [2]: 66.3%
viability, T/C [3]: 64.7%
viability, T/C [4]: 48.2%
viability, T/C [5]: 22.2%
viability, T/C [6]: 32.5%
viability, T/C [7]: 52.1%
viability, T/C [8]: 52.7%
viability, T/C [9]: 44.5%
viability, T/C [10]: 39.9%
viability, T/C [11]: 19.4%
viability, T/C [12]: 26.1%
viability, T/C [13]: 46.1%
viability, T/C [14]: 42.3%
viability, T/C [15]: 45.5%
viability, T/C [16]: 35.8%
viability, T/C [17]: 18.6%
viability, T/C [18]: 22.3%
viability, T/C [19]: 43.8%
viability, T/C [20]: 43.5%
viability, T/C [21]: 42.6%
viability, T/C [22]: 34.6%
viability, T/C [23]: 16.5%
viability, T/C [24]: 19.8%
viability, T/C [25]: 38.3%
viability, T/C [26]: 40.4%
viability, T/C [27]: 39.7%
viability, T/C [28]: 28%
viability, T/C [29]: 0.11%
viability, T/C [30]: 7.92%
viability, T/C [31]: 30.7%
viability, T/C [32]: 33.9%
viability, T/C [33]: 30.4%
viability, T/C [34]: 15.6%
viability, T/C [35]: 0.2%
viability, T/C [36]: 0.19%

IC50 (second compound 0.0316 µM): < 31.6 nM
IC50 (second compound 0.1 µM): < 31.6 nM
IC50 (second compound 0.316 µM): < 31.6 nM
IC50 (second compound 1 µM): < 31.6 nM
IC50 (second compound 3.16 µM): < 31.6 nM
IC50 (second compound 10 µM): < 31.6 nM
SMILES: COc1cccc2c1C(=O)c1c(O)c3c(c(O)c1C2=O)CC(O)(C(=O)CO)CC3OC1CC(N)C(O)C(C)O1 (stereo unspecified) + Cc1cnc(CNC(=O)c2c(=O)c3ccc(N4CCCN(C)CC4)nc3n3c2sc2ccccc23)cn1
viability, T/C [1]: 47.7%
viability, T/C [2]: 44.6%
viability, T/C [3]: 34.8%
viability, T/C [4]: 19.2%
viability, T/C [5]: 1.21%
viability, T/C [6]: 1.57%
viability, T/C [7]: 47.7%
viability, T/C [8]: 43.1%
viability, T/C [9]: 33.9%
viability, T/C [10]: 19.1%
viability, T/C [11]: 0.53%
viability, T/C [12]: 1.49%
viability, T/C [13]: 44.1%
viability, T/C [14]: 39.7%
viability, T/C [15]: 30.2%
viability, T/C [16]: 14.3%
viability, T/C [17]: 0.1%
viability, T/C [18]: 1.32%
viability, T/C [19]: 41.4%
viability, T/C [20]: 35.2%
viability, T/C [21]: 30.6%
viability, T/C [22]: 16%
viability, T/C [23]: 0.1%
viability, T/C [24]: 0.65%
viability, T/C [25]: 33.8%
viability, T/C [26]: 32.2%
viability, T/C [27]: 25.4%
viability, T/C [28]: 11.2%
viability, T/C [29]: 0.14%
viability, T/C [30]: 0.46%
viability, T/C [31]: 31%
viability, T/C [32]: 28.8%
viability, T/C [33]: 24.5%
viability, T/C [34]: 4.52%
viability, T/C [35]: 0.19%
viability, T/C [36]: 0.43%
